Measurements as given in PubChem BioAssay AID248 (DTP/NCI, 2004).
Where “and” joins values, the source holds several entries; their conditions need not be identical. Identical values can stand only once. Inconclusive results and toxic doses are left out. No stated cut-off is given here; in the data, active means T/C of 150% or more; inactive means T/C below 125%.

Test system: L1210 leukemia ip in BDF1 mice, survival T/C
Assay: NCI In Vivo Anticancer Drug Screen. Data for tumor model L1210 Leukemia (intraperitoneal) in B6D2F1 (BDF1) mice
Conditions: endpoint: mean survival time, higher = longer survival
Summary of the method: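 Antitumor effect is assessed in tumor-bearing animals. Survival in the compound arm is compared with a vehicle-dosed control arm and expressed as their quotient.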

[1] = dose: 100.0 mg/kg/injection, schedule: Q01DX001 (ip), vehicle: saline
[2] = dose: 200.0 mg/kg/injection, schedule: Q01DX001 (ip), vehicle: saline
[3] = dose: 400.0 mg/kg/injection, schedule: Q01DX001 (ip), vehicle: saline
[4] = dose: 100.0 mg/kg/injection, schedule: Q04DX003 (ip), vehicle: saline
[5] = dose: 200.0 mg/kg/injection, schedule: Q04DX003 (ip), vehicle: saline
[6] = dose: 6.25 mg/kg/injection, schedule: Q01DX009 (ip), vehicle: saline with Tween-80
[7] = dose: 12.5 mg/kg/injection, schedule: Q01DX009 (ip), vehicle: saline with Tween-80
[8] = dose: 100.0 mg/kg/injection, schedule: Q01DX001 (ip), vehicle: carboxymethylcellulose (CMC)
[9] = dose: 200.0 mg/kg/injection, schedule: Q01DX001 (ip), vehicle: carboxymethylcellulose (CMC)
[10] = dose: 400.0 mg/kg/injection, schedule: Q01DX001 (ip), vehicle: carboxymethylcellulose (CMC)

Measured: T/C

CCCCCN(CCCCC)CCCNc1c2c(nc3ccc(OC)cc13)CCCC2
inactive: dose: 2.5 mg/kg/injection, schedule: Q01DX009 (ip), vehicle: saline 100 % of control | dose: 5.0 mg/kg/injection, schedule: Q01DX001 (ip), vehicle: saline 98 % of control | dose: 5.0 mg/kg/injection, schedule: Q01DX009 (ip), vehicle: saline 104 % of control | dose: 9.0 mg/kg/injection, schedule: Q01DX001 (ip), vehicle: saline 94 % of control and 102 % of control | dose: 10.0 mg/kg/injection, schedule: Q01DX001 (ip), vehicle: saline 96 % of control | dose: 10.0 mg/kg/injection, schedule: Q01DX009 (ip), vehicle: saline 98 % of control | dose: 13.0 mg/kg/injection, schedule: Q01DX001 (ip), vehicle: saline 94 % of control | dose: 14.0 mg/kg/injection, schedule: Q01DX001 (ip), vehicle: saline 104 % of control | dose: 20.0 mg/kg/injection, schedule: Q01DX001 (ip), vehicle: saline 93 % of control and 102 % of control (2×) | dose: 20.0 mg/kg/injection, schedule: Q01DX009 (ip), vehicle: saline 100 % of control | dose: 30.0 mg/kg/injection, schedule: Q01DX001 (ip), vehicle: saline 98 % of control

CCN(CC)CCCN1c2ccccc2Sc2ccc(Cl)cc21
inactive: dose: 1.56 mg/kg/injection, schedule: Q01DX009 (ip), vehicle: saline 102 % of control | dose: 3.12 mg/kg/injection, schedule: Q01DX009 (ip), vehicle: saline 98 % of control | dose: 6.25 mg/kg/injection, schedule: Q01DX009 (ip), vehicle: saline 96 % of control | dose: 12.5 mg/kg/injection, schedule: Q01DX009 (ip), vehicle: saline 103 % of control | dose: 12.5 mg/kg/injection, schedule: Q04DX003 (ip), vehicle: saline 102 % of control | dose: 25.0 mg/kg/injection, schedule: Q04DX003 (ip), vehicle: saline 109 % of control

COC(=O)C1C2CC3OC(=O)C1(C)C3C2 (stereo not given)
inactive: [1] 103 % of control | [2] 98 % of control | [3] 97 % of control

CCCCS(=O)(=O)N1CCCC1
inactive: dose: 100.0 mg/kg/injection, schedule: Q04DX002 (ip), vehicle: saline with Tween-80 101 % of control | dose: 200.0 mg/kg/injection, schedule: Q04DX002 (ip), vehicle: saline with Tween-80 101 % of control | dose: 400.0 mg/kg/injection, schedule: Q04DX002 (ip), vehicle: saline with Tween-80 101 % of control

O=C1c2ccccc2C(=O)c2c(O)c3c(c(O)c21)CC=CC3
inactive: dose: 0.25 mg/kg/injection, schedule: Q04DX003 (ip), vehicle: saline with Tween-80 94 % of control | dose: 0.5 mg/kg/injection, schedule: Q04DX003 (ip), vehicle: saline with Tween-80 104 % of control | dose: 1.0 mg/kg/injection, schedule: Q04DX003 (ip), vehicle: saline with Tween-80 100 % of control | dose: 2.0 mg/kg/injection, schedule: Q04DX003 (ip), vehicle: saline with Tween-80 104 % of control | dose: 4.0 mg/kg/injection, schedule: Q04DX003 (ip), vehicle: saline with Tween-80 102 % of control | dose: 6.0 mg/kg/injection, schedule: Q04DX003 (ip), vehicle: saline with Tween-80 102 % of control | dose: 8.0 mg/kg/injection, schedule: Q04DX003 (ip), vehicle: saline with Tween-80 93 % of control | dose: 12.0 mg/kg/injection, schedule: Q04DX003 (ip), vehicle: saline with Tween-80 103 % of control | dose: 16.0 mg/kg/injection, schedule: Q04DX003 (ip), vehicle: saline with Tween-80 93 % of control | dose: 24.0 mg/kg/injection, schedule: Q04DX003 (ip), vehicle: saline with Tween-80 102 % of control | dose: 32.0 mg/kg/injection, schedule: Q04DX003 (ip), vehicle: saline with Tween-80 100 % of control | dose: 48.0 mg/kg/injection, schedule: Q04DX003 (ip), vehicle: saline with Tween-80 103 % of control | dose: 64.0 mg/kg/injection, schedule: Q04DX003 (ip), vehicle: saline with Tween-80 96 % of control | dose: 128.0 mg/kg/injection, schedule: Q04DX003 (ip), vehicle: saline with Tween-80 105 % of control

c1ccc(N2CCN(c3c4ccccc4nc4ccccc34)CC2)cc1
inactive: dose: 75.0 mg/kg/injection, schedule: Q01DX001 (ip), vehicle: Klucel (hydroxypropylcellulose) (HPC) 105 % of control | dose: 150.0 mg/kg/injection, schedule: Q01DX001 (ip), vehicle: Klucel (hydroxypropylcellulose) (HPC) 105 % of control | dose: 300.0 mg/kg/injection, schedule: Q01DX001 (ip), vehicle: Klucel (hydroxypropylcellulose) (HPC) 96 % of control

[CH3][Sb]1([Cl])[CH2]CCC[CH2]1
inactive: dose: 50.0 mg/kg/injection, schedule: Q04DX003 (ip), vehicle: saline 97 % of control | [4] 104 % of control | [5] 104 % of control

CC1(C)C(=O)C=C(c2ccccc2)C1(O)c1ccccc1 (stereo not given)
inactive: dose: 100.0 mg/kg/injection, schedule: Q04DX003 (ip), vehicle: saline with Tween-80 99 % of control | dose: 200.0 mg/kg/injection, schedule: Q04DX003 (ip), vehicle: saline with Tween-80 96 % of control | dose: 400.0 mg/kg/injection, schedule: Q04DX003 (ip), vehicle: saline with Tween-80 96 % of control

O=C(OCCCCOC(=O)c1cccc([N+](=O)[O-])c1)c1cccc([N+](=O)[O-])c1
inactive: dose: 3.12 mg/kg/injection, schedule: Q01DX009 (ip), vehicle: saline with Tween-80 95 % of control | [6] 100 % of control | [7] 97 % of control | dose: 100.0 mg/kg/injection, schedule: Q01DX001 (ip), vehicle: other 102 % of control | dose: 200.0 mg/kg/injection, schedule: Q01DX001 (ip), vehicle: other 95 % of control | dose: 400.0 mg/kg/injection, schedule: Q01DX001 (ip), vehicle: other 93 % of control

COc1ccc(NC(=O)NNC(=O)CCCC(=O)NNC(=O)Nc2ccc(OC)cc2)cc1
inactive: dose: 50.0 mg/kg/injection, schedule: Q01DX001 (ip), vehicle: saline 112 % of control | [1] 102 % of control | [2] 93 % of control | [3] 93 % of control

O=c1c(N=Nc2ccc(Cl)cc2)c(O)n(-c2ccc(I)cc2)c(=S)n1-c1ccccc1
inactive: dose: 100.0 mg/kg/injection, schedule: Q01DX001 (ip), vehicle: Klucel (hydroxypropylcellulose) (HPC) 93 % of control | dose: 200.0 mg/kg/injection, schedule: Q01DX001 (ip), vehicle: Klucel (hydroxypropylcellulose) (HPC) 104 % of control | dose: 400.0 mg/kg/injection, schedule: Q01DX001 (ip), vehicle: Klucel (hydroxypropylcellulose) (HPC) 102 % of control

CCC(CCc1ccccn1)C(=O)c1ccccc1 (stereo not given)
inactive: dose: 75.0 mg/kg/injection, schedule: Q01DX001 (ip), vehicle: carboxymethylcellulose (CMC) 100 % of control | dose: 150.0 mg/kg/injection, schedule: Q01DX001 (ip), vehicle: carboxymethylcellulose (CMC) 96 % of control | dose: 300.0 mg/kg/injection, schedule: Q01DX001 (ip), vehicle: carboxymethylcellulose (CMC) 94 % of control

Nc1ncc(CNc2ccc(C(=O)NC(CCC(=O)O)C(=O)O)cc2)c(N)n1 (stereo not given)
inactive: [8] 98 % of control | [9] 96 % of control | [10] 98 % of control

O=C(Nc1cc(Cl)ccc1Cl)c1cccc(F)c1
inactive: dose: 100.0 mg/kg/injection, schedule: Q01DX009 (ip), vehicle: Klucel (hydroxypropylcellulose) (HPC) 92 % of control | dose: 200.0 mg/kg/injection, schedule: Q01DX009 (ip), vehicle: Klucel (hydroxypropylcellulose) (HPC) 98 % of control | dose: 400.0 mg/kg/injection, schedule: Q01DX009 (ip), vehicle: Klucel (hydroxypropylcellulose) (HPC) 98 % of control

COc1ccc(NC(=O)CSc2cc(Cl)ccc2Cl)cc1
inactive: [8] 102 % of control | [9] 96 % of control | [10] 90 % of control

CC(F)(F)C(F)(F)C(=O)CC(=O)C(F)(F)F.CC(F)(F)C(F)(F)C(=O)CC(=O)C(F)(F)F.[Cu]
inactive: [6] 88 % of control | dose: 6.25 mg/kg/injection, schedule: Q04DX003 (ip), vehicle: saline with Tween-80 91 % of control | [7] 101 % of control | dose: 12.5 mg/kg/injection, schedule: Q04DX003 (ip), vehicle: saline with Tween-80 95 % of control | dose: 25.0 mg/kg/injection, schedule: Q01DX009 (ip), vehicle: saline with Tween-80 90 % of control | dose: 25.0 mg/kg/injection, schedule: Q04DX003 (ip), vehicle: saline with Tween-80 95 % of control

O=c1oc2ccccc2c(=S)n1-c1ccccc1
inactive: [4] 105 % of control | [5] 94 % of control | dose: 400.0 mg/kg/injection, schedule: Q04DX003 (ip), vehicle: saline 91 % of control
